These are literature values, as cited in patent publication US20130296280A1, “EUTECTIC MIXTURE COMPRISING CELECOXIB AND POLOXAMER” (priority 2012, published 2013).

The conditions of this series: oral celecoxib; Drug Metab Dispos. 2000:28:308-314.

Consider `Cc1ccc(-c2cc(C(F)(F)F)nn2-c2ccc(S(N)(=O)=O)cc2)cc1` [celecoxib, 4-[5-(4-methylphenyl)-3-(trifluoromethyl)-1H-pyrazol-1-yl]benzenesulfonamide], for which the bioavailability is 22-40%.
